From patent publication US20130165440A1, “JAK1 Inhibitors” (EXELIXIS, INC., priority 2010, published 2013)

Each molecule was assayed against T1, recombinant JAK1 enzyme (Homo sapiens, UniProt P23458) (assay: JAK1 Kinase Assay (luciferase-luciferin-coupled chemiluminescence, ATP consumption)). Details: 8 nM JAK1 (V866-K1155), 30 μM IRS-1 peptide (Y608), 2 μM ATP, 2 hours ambient temperature, KinaseGlo; read-out: JAK1 IRS-1tide Chemilum (IC50).
T1 construct: 8 nM of recombinant JAK1 enzyme (Insect expressed: V866-K1155); host or cells: insect cells
Format: biochemical
Protocol: JAK1 Kinase Assay Used to Test Compounds
JAK1 Kinase activity was measured as the percent of ATP consumed following the kinase reaction using luciferase-luciferin-coupled chemiluminescence. The reaction was conducted in white medium binding 384-well microtiter plates. The kinase reaction were initiated by combining test compounds, 8 nM of recombinant JAK1 enzyme (Insect expressed: V866-K1155), 30 μM of IRS-1 peptide (Y608) and 2 μM ATP in buffer containing 20 mM Hepes (pH 7.5), 10 mM MgCl2, 0.01% Brij, 5% glycerol and 1 mM DTT in a 20 μL volume. The reaction mixture was incubated at ambient temperature for 2 hours. Following the kinase reaction, a 20 μL aliquot of KinaseGlo was added to stop the reaction and measure remaining ATP via detection of chemiluminescence using the Envison reader. Total ATP consumption was limited to 25-60%.

T1 sequence (P23458 865-1154 limits assumed): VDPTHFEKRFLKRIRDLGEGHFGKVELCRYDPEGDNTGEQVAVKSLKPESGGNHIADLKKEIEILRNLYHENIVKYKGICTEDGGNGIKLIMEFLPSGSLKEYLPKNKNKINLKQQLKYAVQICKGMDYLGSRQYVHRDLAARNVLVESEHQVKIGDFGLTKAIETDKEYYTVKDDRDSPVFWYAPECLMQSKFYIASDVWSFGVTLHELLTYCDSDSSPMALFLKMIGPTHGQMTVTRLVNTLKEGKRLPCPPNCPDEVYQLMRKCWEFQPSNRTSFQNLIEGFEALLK

SMILES | IC50 [nM]
COC(=O)c1ccc(-c2nnc(Nc3cccc(C(F)(F)F)c3)c3ncccc23)cc1 [Compound 39, methyl 4-(8-{[3-(trifluoromethyl)phenyl]amino}pyrido[2,3-d]pyridazin-5-yl)benzoate] | 2000 to 30000
COC(=O)c1ccc(-c2nnc(Nc3cc(CN(C)C)cc(C(F)(F)F)c3)c3ccccc23)cc1 [Compound 30, methyl 4-[4-({3-[(dimethylamino)methyl]-5-(trifluoromethyl)phenyl}amino)phthalazin-1-yl]benzoate] | 500 to 1000
COC(=O)c1ccc(-c2nnc(Nc3cccc(C(F)(F)F)c3)c3cccnc23)cc1 [Compound 13] | 500 to 1000
COC(=O)c1ccc(-c2nnc(Nc3cc(NCCCN(C)C)cc(C(F)(F)F)c3)c3ccccc23)cc1 [Compound 8, methyl 4-(4-{[3-{[3-(dimethylamino)propyl]amino}-5-(trifluoromethyl)phenyl]amino}phthalazin-1-yl)benzoate] | 150 to 500
COC(=O)c1ccc(-c2nnc(Nc3ccc(OC)c(C(F)(F)F)c3)c3ccccc23)cc1 [Compound 34, methyl 4-(4-{[4-(methyloxy)-3-(trifluoromethyl)phenyl]amino}phthalazin-1-yl)benzoate] | 500 to 1000
COC(=O)c1ccc(-c2nnc(Nc3cccc(N(C)C)c3)c3ccccc23)cc1 [Compound 63, methyl 4-(4-{[3-(dimethylamino)phenyl]amino}phthalazin-1-yl)benzoate] | 2000 to 30000
COC(=O)c1ccc(-c2nnc(Nc3cccc(Br)c3)c3ccccc23)cc1 [Compound 51, methyl 4-{4-[(3-bromophenyl)amino]phthalazin-1-yl}benzoate] | 150 to 500
CCc1cccc(Nc2nnc(-c3ccc(C(=O)OC)cc3)c3ccccc23)c1 [Compound 21, methyl 4-{4-[(3-ethylphenyl)amino]phthalazin-1-yl}benzoate] | 150 to 500
COC(=O)c1ccc(-c2nnc(Nc3ccc(F)c(C(F)(F)F)c3)c3ccccc23)cc1 [Compound 53, methyl 4-(4-{[4-fluoro-3-(trifluoromethyl)phenyl]amino}phthalazin-1-yl)benzoate] | 500 to 1000
COC(=O)c1ccc(-c2nnc(Nc3cccc(C#N)c3)c3ccccc23)cc1 [Compound 54, methyl 4-{4-[(3-cyanophenyl)amino]phthalazin-1-yl}benzoate] | 2000 to 30000
COC(=O)c1ccc(-c2nnc(Nc3cc(CCN(C)C)cc(C(F)(F)F)c3)c3ccccc23)cc1 [Compound 60, methyl 4-[4-({3-[2-(dimethylamino)ethyl]-5-(trifluoromethyl)phenyl}amino)phthalazin-1-yl]benzoate] | 500 to 1000
COC(=O)c1ccc(-c2nnc(Nc3cccc(C(C)C)c3)c3cnccc23)cc1 [Compound 57, methyl 4-(4-{[3-(1-methylethyl)phenyl]amino}pyrido[3,4-d]pyridazin-1-yl)benzoate] | 500 to 1000
COC(=O)c1ccc(-c2nnc(Nc3cc(OCCN(C)C)cc(C(F)(F)F)c3)c3ccccc23)cc1 [Compound 10, methyl 4-(4-{[3-{[2-(dimethylamino)ethyl]oxy}-5-(trifluoromethyl)phenyl]amino}phthalazin-1-yl)benzoate] | 150 to 500
COC(=O)c1ccc(-c2nnc(Nc3cccc(C(C)(C)C)c3)c3ccccc23)cc1 [Compound 4, methyl 4-(4-{[3-(1,1-dimethylethyl)phenyl]amino}phthalazin-1-yl)benzoate] | 500 to 1000
COC(=O)c1ccc(-c2nnc(Nc3cccc(C)c3)c3ccccc23)cc1 [Compound 47] | 500 to 1000
COC(=O)c1ccc(-c2nnc(Nc3cc(N4CCN(C)CC4)cc(C(F)(F)F)c3)c3ccccc23)cc1 [Compound 20, methyl 4-(4-{[3-(4-methylpiperazin-1-yl)-5-(trifluoromethyl)phenyl]amino}phthalazin-1-yl)benzoate] | 1000 to 2000
COC(=O)c1ccc(-c2nnc(Nc3cccc(C(F)(F)F)c3)c3cnccc23)cc1 [Compound 29, methyl 4-(4-{[3-(trifluoromethyl)phenyl]amino}pyrido[3,4-d]pyridazin-1-yl)benzoate] | 150 to 500
COC(=O)c1ccc(-c2nnc(Nc3cc(NCCN(C)C)cc(C(F)(F)F)c3)c3ccccc23)cc1 [Compound 36, methyl 4-(4-{[3-{[2-(dimethylamino)ethyl]amino}-5-(trifluoromethyl)phenyl]amino}phthalazin-1-yl)benzoate] | 150 to 500
COC(=O)c1ccc(-c2nnc(Nc3cc(CCCN(C)C)cc(C(F)(F)F)c3)c3ccccc23)cc1 [Compound 22, methyl 4-[4-({3-[3-(dimethylamino)propyl]-5-(trifluoromethyl)phenyl}amino)phthalazin-1-yl]benzoate] | ≤ 150
COC(=O)c1ccc(-c2nnc(Nc3cc(C(=O)OC)cc(C(F)(F)F)c3)c3ccccc23)cc1 [Compound 15, methyl 3-[(4-{4-[(methyloxy)carbonyl]phenyl}phthalazin-1-yl)amino]-5-(trifluoromethyl)benzoate] | 2000 to 30000

Continued, values first:

IC50 [nM] | SMILES
500 to 1000 | COC(=O)c1ccc(-c2nnc(Nc3cc(OC)cc(C(F)(F)F)c3)c3ccccc23)cc1 [Compound 32, methyl 4-(4-{[3-(methyloxy)-5-(trifluoromethyl)phenyl]amino}phthalazin-1-yl)benzoate]
≤ 150 | FC(F)(F)c1cc(Nc2nnc(-c3ccc4cn[nH]c4c3)c3ccccc23)cc(C(F)(F)F)c1 [Compound 33, N-[3,5-bis(trifluoromethyl)phenyl]-4-(1H-indazol-6-yl)phthalazin-1-amine]
≤ 150 | COC(=O)c1ccc(-c2nnc(Nc3cc(Cl)cc(C(F)(F)F)c3)c3ccccc23)cc1 [Compound 14, methyl 4-(4-{[3-chloro-5-(trifluoromethyl)phenyl]amino}phthalazin-1-yl)benzoate]
2000 to 30000 | O=C(O)c1ccc(-c2nnc(Nc3cc(C(F)(F)F)cc(C(F)(F)F)c3)c3ccccc23)cc1 [Compound 40, 4-(4-{[3,5-bis(trifluoromethyl)phenyl]amino}phthalazin-1-yl)benzoic acid]
≤ 150 | COC(=O)c1ccc(-c2nnc(Nc3cc(C)cc(C(F)(F)F)c3)c3ccccc23)cc1 [Compound 65, methyl 4-(4-{[3-methyl-5-(trifluoromethyl)phenyl]amino}phthalazin-1-yl)benzoate]
500 to 1000 | O=C(NCCN1CCOCC1)c1ccc(-c2nnc(Nc3cc(C(F)(F)F)cc(C(F)(F)F)c3)c3ccccc23)cc1 [Compound 49, 4-(4-{[3,5-bis(trifluoromethyl)phenyl]amino}phthalazin-1-yl)-N-(2-morpholin-4-ylethyl)benzamide]
2000 to 30000 | CC(=O)c1ccc(-c2nnc(Nc3cc(C(F)(F)F)cc(C(F)(F)F)c3)c3ccccc23)s1 [Compound 12, 1-[5-(4-{[3,5-bis(trifluoromethyl)phenyl]amino}phthalazin-1-yl)-2-thienyl]ethanone]
500 to 1000 | CC(=O)Nc1ccc(-c2nnc(Nc3cc(C(F)(F)F)cc(C(F)(F)F)c3)c3ccccc23)cc1 [Compound 28, N-[4-(4-{[3,5-bis(trifluoromethyl)phenyl]amino}phthalazin-1-yl)phenyl]acetamide]
1000 to 2000 | FC(F)(F)c1cc(Nc2nnc(-c3ccc4nn[nH]c4c3)c3ccccc23)cc(C(F)(F)F)c1 [Compound 45, 4-(1H-1,2,3-benzotriazol-6-yl)-N-[3,5-bis(trifluoromethyl)phenyl]phthalazin-1-amine]
150 to 500 | FC(F)(F)c1cc(Nc2nnc(-c3ccc(-c4cc[nH]n4)cc3)c3ccccc23)cc(C(F)(F)F)c1 [Compound 52, N-[3,5-bis(trifluoromethyl)phenyl]-4-[4-(1H-pyrazol-3-yl)phenyl]phthalazin-1-amine]
≤ 150 | Nc1n[nH]c2cc(-c3nnc(Nc4cc(C(F)(F)F)cc(C(F)(F)F)c4)c4ccccc34)ccc12 [Compound 38, 4-(3-amino-1H-indazol-6-yl)-N-[3,5-bis(trifluoromethyl)phenyl]phthalazin-1-amine]
150 to 500 | COC(=O)c1ccc(-c2nnc(Nc3cc(Br)cc(C(F)(F)F)c3)c3ccccc23)cc1 [Compound 44, methyl 4(4-{[3-bromo-5-(trifluoromethyl)phenyl]amino}phthalazin-1-yl)benzoate]
500 to 1000 | Cc1cc(-c2ccc(-c3nnc(Nc4cc(C(F)(F)F)cc(C(F)(F)F)c4)c4ccccc34)cc2)n[nH]1 [Compound 61, N-[3,5-bis(trifluoromethyl)phenyl]-4-[4-(5-methyl-1H-pyrazol-3-yl)phenyl]phthalazin-1-amine]
≤ 150 | O=c1[nH]ccn1-c1ccc(-c2nnc(Nc3cc(C(F)(F)F)cc(C(F)(F)F)c3)c3ccccc23)cc1 [Compound 5, 1-[4-(4-{[3,5-bis(trifluoromethyl)phenyl]amino}phthalazin-1-yl)phenyl]-1,3-dihydro-2H-imidazol-2-one]
2000 to 30000 | O=C1OCc2cc(-c3nnc(Nc4cc(C(F)(F)F)cc(C(F)(F)F)c4)c4ccccc34)ccc21 [Compound 27, 5-(4-{[3,5-bis(trifluoromethyl)phenyl]amino}phthalazin-1-yl)-2-benzofuran-1(3H)-one]
150 to 500 | COC(=O)c1ccc(-c2nnc(Nc3cc(C(F)(F)F)cc(C(F)(F)F)c3)c3ccccc23)cc1 [Compound 66, methyl 4-(4-{[3,5-bis(trifluoromethyl)phenyl]amino}phthalazin-1-yl)benzoate]
500 to 1000 | COC(=O)c1ccc(-c2nnc(Nc3cc(C(F)(F)F)cc(C(F)(F)F)c3)c3ccccc23)c(C)c1 [Compound 64, methyl 4-(4-{[3,5-bis(trifluoromethyl)phenyl]amino}phthalazin-1-yl)-3-methylbenzoate]
